Test results reported in the OPERA property sets (Mansouri et al. 2018).

| logP | SMILES |
| --- | --- |
| 2.67 | C1=CC2C=CC1C2 |
| 0.4 | OC1C2CCC(C2)C1O (stereo unspecified) |
| 1.58 | C1CC2CC1C1OC21 (stereo unspecified) |
| 0.99 | OC1CC2C=CC1C2 (stereo unspecified) |
| 3.11 | BrC1C2CC3C(C2)C13 (stereo unspecified) |
| 2.9 | C1C2C3C2C2C1C32 (stereo unspecified) |
| 3.78 | C1CC2CCC1C2 |
| 3.35 | ClC1CC2CCC1C2 (stereo unspecified) |
| 3.54 | BrC1CC2CCC1C2 (stereo unspecified) |
| 0.81 | O=C1C2CC3C(C2)C13 |
| 1.45 | OC1CC2CCC1C2 (stereo unspecified) |
| -0.42 | OC1C2CC3C1C3C2O (stereo unspecified) |
| 1.07 | OC(C1CC1)C1CC1 |
| 3.24 | C1=CC2CCC1C2 |
| 1.99 | OCC1CC2CCC1C2 (stereo unspecified) |
| 0.4 | OC1CC2CCC1C2O (stereo unspecified) |
